The target of this test is Cdk9/cyclinT1 (Homo sapiens, UniProt P50750). Kind of test: Cdk9/cyclinT1 IMAP Protocol (fluorescence polarization kinase assay). The settings on record: Cdk9_cyclinT1_IC50, Table V; generated using one of the two Cdk9/cyclinT1 assays (IMAP or Alpha Screen), not stated which; ATP 6 uM.

We go through 28 compounds from patent publication US20110130380A1, “Heteroaryl Kinase Inhibitors” (priority 2009, published 2011).

SMILES strings stand for the structures.

The IC50 is the midpoint of a concentration-inhibition curve. High values mean weaker potency in that assay, low ones greater potency in that assay.

Cdk9/cyclinT1, sequence (P50750 whole entry): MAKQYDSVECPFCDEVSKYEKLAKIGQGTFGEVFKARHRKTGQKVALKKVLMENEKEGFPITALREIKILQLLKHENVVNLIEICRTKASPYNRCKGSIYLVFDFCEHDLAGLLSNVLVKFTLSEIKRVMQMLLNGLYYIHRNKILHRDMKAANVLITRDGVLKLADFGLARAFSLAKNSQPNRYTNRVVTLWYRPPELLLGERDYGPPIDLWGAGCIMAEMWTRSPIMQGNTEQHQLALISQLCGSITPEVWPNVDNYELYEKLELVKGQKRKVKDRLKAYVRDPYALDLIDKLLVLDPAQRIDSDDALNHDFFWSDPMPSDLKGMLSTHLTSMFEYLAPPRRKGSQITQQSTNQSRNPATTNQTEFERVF
Cdk9/cyclinT1, sequence (O60563 whole entry partner): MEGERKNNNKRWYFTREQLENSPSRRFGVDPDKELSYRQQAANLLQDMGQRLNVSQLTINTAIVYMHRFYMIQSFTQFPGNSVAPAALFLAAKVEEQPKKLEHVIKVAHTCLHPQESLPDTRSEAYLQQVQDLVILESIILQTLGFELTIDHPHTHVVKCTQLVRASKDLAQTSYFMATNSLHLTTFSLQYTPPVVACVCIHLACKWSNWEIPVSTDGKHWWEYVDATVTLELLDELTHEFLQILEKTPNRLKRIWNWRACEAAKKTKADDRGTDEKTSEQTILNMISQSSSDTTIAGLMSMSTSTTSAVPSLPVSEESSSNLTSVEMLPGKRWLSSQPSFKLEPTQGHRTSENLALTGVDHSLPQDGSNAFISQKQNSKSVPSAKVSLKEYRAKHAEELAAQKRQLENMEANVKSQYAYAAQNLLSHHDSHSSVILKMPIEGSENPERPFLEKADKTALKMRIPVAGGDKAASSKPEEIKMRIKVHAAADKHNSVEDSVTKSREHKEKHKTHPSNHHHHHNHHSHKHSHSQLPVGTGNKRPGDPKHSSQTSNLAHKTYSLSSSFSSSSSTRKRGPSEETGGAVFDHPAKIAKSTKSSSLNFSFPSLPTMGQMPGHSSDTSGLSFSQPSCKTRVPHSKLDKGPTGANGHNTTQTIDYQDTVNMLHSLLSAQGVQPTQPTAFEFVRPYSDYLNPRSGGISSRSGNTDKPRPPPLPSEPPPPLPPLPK

In the case of `C[C@@H]1CC[C@@H](C(=O)Nc2cc(-c3cccc(NC[C@@H]4CCOC(C)(C)C4)n3)c(Cl)cn2)CN1` (mixture of isomers) [Example 225, (3R,6R)-/(3S,6S)-6-Methyl-piperidine-3-carboxylic acid {5′-chloro-6-[((R)-2,2-dimethyl-tetrahydro-pyran-4-ylmethyl)-amino]-[2,4′]bipyridinyl-2′-yl}-amide], the half-maximal inhibitory concentration (IC50) amounted to 1 nM.

In turn, `C[C@@H]1CC[C@@H](C(=O)Nc2cc(-c3cccc(NC[C@@H]4CCOC(C)(C)C4)n3)ccn2)CN1` (mixture of isomers) [Example 226, (3R,6R)-/(3S,6S)-6-Methyl-piperidine-3-carboxylic acid {6-[((R)-2,2-dimethyl-tetrahydro-pyran-4-ylmethyl)-amino]-[2,4′]bipyridinyl-2′-yl}-amide] returned an IC50 of 1 nM.

`C[C@@H]1CC[C@@H](C(=O)Nc2cc(-c3cccc(NC[C@H]4CCOC(C)(C)C4)n3)c(Cl)cn2)CN1` (mixture of isomers) [Example 227, (3R,6R)-/(3S,6S)-6-Methyl-piperidine-3-carboxylic acid {5′-chloro-6-[((S)-2,2-dimethyl-tetrahydro-pyran-4-ylmethyl)-amino]-[2,4′]bipyridinyl-2′-yl}-amide] showed an IC50 of 1 nM.

Consider `C[C@@H]1CC[C@@H](C(=O)Nc2cc(-c3cccc(NC[C@H]4CCOC(C)(C)C4)n3)ccn2)CN1` (mixture of isomers) [Example 228, (3R,6R)-/(3S,6S)-6-Methyl-piperidine-3-carboxylic acid {6-[((S)-2,2-dimethyl-tetrahydro-pyran-4-ylmethyl)-amino]-[2,4′]bipyridinyl-2′-yl}-amide], for which the IC50 turned out to be 2 nM.

For the compound `N[C@@H]1CCC[C@H](C(=O)Nc2cc(-c3cccc(NCC4CCOCC4)n3)c(Cl)cn2)C1` (racemic) [Example 59, (1S,3R)-/(1R,3S)-3-Amino-cyclohexanecarboxylic acid {5′-chloro-6-[(tetrahydro-pyran-4-ylmethyl)-amino]-[2,4′]bipyridinyl-2′-yl}-amide], the concentration for half-maximal inhibition (IC50) came out at 9 nM. `C[C@H]1CNC[C@H](C(=O)Nc2cc(-c3cccc(NCC4CCOCC4)n3)c(Cl)cn2)C1` (racemic) [Example 104, (3R,5R)-/(3S,5S)-5-Methyl-piperidine-3-carboxylic acid {5′-chloro-6-[(tetrahydro-pyran-4-ylmethyl)-amino]-[2,4′]bipyridinyl-2′-yl}-amide] had an IC50 of 46 nM. On to `C[C@@H]1CNC[C@H](C(=O)Nc2cc(-c3cccc(NCC4CCOCC4)n3)c(Cl)cn2)C1` (racemic) [Example 125, (3R,5S)-/(3S,5R)-5-Methyl-piperidine-3-carboxylic acid {5′-chloro-6-[(tetrahydro-pyran-4-ylmethyl)-amino]-[2,4′]bipyridinyl-2′-yl}-amide], for which the IC50 is 9 nM. Compound `C[C@H]1CC[C@@H](C(=O)Nc2cc(-c3cccc(NCC4CCOCC4)n3)c(Cl)cn2)CN1` (racemic) [Example 126, (3R,6S)-/(3S,6R)-6-Methyl-piperidine-3-carboxylic acid {5′-chloro-6-[(tetrahydro-pyran-4-ylmethyl)-amino]-[2,4′]bipyridinyl-2′-yl}-amide] returned an IC50 of 18 nM.

In turn, `C[C@@H]1CC[C@@H](C(=O)Nc2cc(-c3cccc(NCC4CCOCC4)n3)c(Cl)cn2)CN1` (racemic) [Example 127, (3R,6R)-/(3S,6S)-6-methyl-piperidine-3-carboxylic acid {5′-chloro-6-[(tetrahydro-pyran-4-ylmethyl)-amino]-[2,4′]bipyridinyl-2′-yl}-amide] returned an IC50 of 9 nM. Turning to `O=C(Nc1cc(-c2cccc(NCC3CCOCC3)n2)c(Cl)cn1)[C@H]1CNC[C@@H](C(F)(F)F)C1` (racemic) [Example 148, (3R,5S)-/(3S,5R)-5-Trifluoromethyl-piperidine-3-carboxylic acid {5′-chloro-6-[(tetrahydro-pyran-4-ylmethyl)-amino]-[2,4′]bipyridinyl-2′-yl}-amide], the IC50 is under 8 nM. Consider `O=C(Nc1cc(-c2cccc(NCC3CCOCC3)n2)c(Cl)cn1)[C@H]1CNC[C@H](C(F)(F)F)C1` (racemic) [Example 149, (3R,5R)-/(3S,5S)-5-Trifluoromethyl-piperidine-3-carboxylic acid {5′-chloro-6-[(tetrahydro-pyran-4-ylmethyl)-amino]-[2,4′]bipyridinyl-2′-yl}-amide], for which the IC50 stood at 31 nM. Take `O=C(Nc1cc(-c2cccc(NCC3CCOCC3)n2)c(Cl)cn1)[C@@H]1CC[C@H](C(F)(F)F)NC1` (racemic) [Example 160, (3R,6R)-/(3S,6S)-6-Trifluoromethyl-piperidine-3-carboxylic acid {5′-chloro-6-[(tetrahydro-pyran-4-ylmethyl)-amino]-[2,4′]bipyridinyl-2′-yl}-amide]: the IC50 was determined as 11 nM. `O=C(Nc1cc(-c2cccc(NCC3CCOCC3)n2)c(Cl)cn1)[C@@H]1CC[C@@H](C(F)(F)F)NC1` (racemic) [Example 161, (3R,6S)-/(3S,6R)-6-Trifluoromethyl-piperidine-3-carboxylic acid {5′-chloro-6-[(tetrahydro-pyran-4-ylmethyl)-amino]-[2,4′]bipyridinyl-2′-yl}-amide] returned an IC50 of 9 nM. `CO[C@@H]1CNC[C@H](C(=O)Nc2cc(-c3cccc(NCC4CCOCC4)n3)c(Cl)cn2)C1` (racemic) [Example 184, (3R,5S)-/(3S,5R)-5-Methoxy-piperidine-3-carboxylic acid {5′-chloro-6-[(tetrahydro-pyran-4-ylmethyl)-amino]-[2,4′]bipyridinyl-2′-yl}-amide] yielded an IC50 of 11 nM. For `COC[C@@H]1CC[C@H](C(=O)Nc2cc(-c3cccc(NCC4CCOCC4)n3)c(Cl)cn2)CN1` (racemic) [Example 220, (3S,6S)-/(3R,6R)-6-Methoxymethyl-piperidine-3-carboxylic acid {5′-chloro-6-[(tetrahydro-pyran-4-ylmethyl)-amino]-[2,4′]bipyridinyl-2′-yl}-amide] the value was 14 nM.

`COC[C@@H]1CC[C@@H](C(=O)Nc2cc(-c3cccc(NCC4CCOCC4)n3)c(Cl)cn2)CN1` (racemic) [Example 221, (3R,6S)-/(3S,6R)-6-Methoxymethyl-piperidine-3-carboxylic acid {5′-chloro-6-[(tetrahydro-pyran-4-ylmethyl)-amino]-[2,4′]bipyridinyl-2′-yl}-amide] showed a 50% inhibitory concentration (IC50) of 3 nM. `C[C@@H]1CC[C@@H](C(=O)Nc2cc(-c3cccc(NCC4CCOCC4)n3)ccn2)CN1` (racemic) [Example 224, (3R,6R)-/(3S,6S)-6-Methyl-piperidine-3-carboxylic acid {6-[(tetrahydro-pyran-4-ylmethyl)-amino]-[2,4′]bipyridinyl-2′-yl}-amide]: the IC50 came out at 2 nM.

On to `CC[C@@H]1CC[C@@H](C(=O)Nc2cc(-c3cccc(NCC4CCOCC4)n3)c(Cl)cn2)CN1` (racemic) [Example 229, (3R,6R)-/(3S,6S)-6-Ethyl-piperidine-3-carboxylic acid {5′-chloro-6-[(tetrahydro-pyran-4-ylmethyl)-amino]-[2,4′]bipyridinyl-2′-yl}-amide], for which half-maximal inhibition (IC50) required 1 nM. Compound `CC[C@@H]1CC[C@@H](C(=O)Nc2cc(-c3cccc(NCC4CCOCC4)n3)ccn2)CN1` (racemic) [Example 230, (3R,6R)-/(3S,6S)-6-Ethyl-piperidine-3-carboxylic acid {6-[(tetrahydro-pyran-4-ylmethyl)-amino]-[2,4′]bipyridinyl-2′-yl}-amide] came in with an IC50 of 2 nM.

With `CC[C@@H]1CC[C@@H](C(=O)Nc2cc(-c3ccc(F)c(NCC4CCOCC4)n3)c(Cl)cn2)CN1` (racemic) [Example 250, (3R,6R)-/(3S,6S)-6-Ethyl-piperidine-3-carboxylic acid {5′-chloro-5-fluoro-6-[(tetrahydro-pyran-4-ylmethyl)-amino]-[2,4′]bipyridinyl-2′-yl}-amide], the IC50 was 1 nM. For `CC[C@@H]1CC[C@@H](C(=O)Nc2cc(-c3ccc(F)c(NCC4CCOCC4)n3)ccn2)CN1` (racemic) [Example 251, (3R,6R)-/(3S,6S)-6-Ethyl-piperidine-3-carboxylic acid {5-fluoro-6-[(tetrahydro-pyran-4-ylmethyl)-amino]-[2,4′]bipyridinyl-2′-yl}-amide], the 50% inhibitory concentration (IC50) was determined as 1 nM. Compound `CC[C@H]1CC[C@@H](C(=O)Nc2cc(-c3ccc(F)c(NCC4CCOCC4)n3)c(Cl)cn2)CN1` (racemic) [Example 252, (3R,6S)-/(3S,6R)-6-Ethyl-piperidine-3-carboxylic acid {5′-chloro-5-fluoro-6-[(tetrahydro-pyran-4-ylmethyl)-amino]-[2,4′]bipyridinyl-2′-yl}-amide] registered a 50% inhibitory concentration (IC50) of 1 nM. As for `CCN1CCCC(C(=O)Nc2cc(-c3cccc(NCC4CCOCC4)n3)c(Cl)cn2)C1` (single isomer, unassigned) [Example 14], the IC50 was found to be 811 nM. With `CCN1CCC[C@@H](C(=O)Nc2cc(-c3cccc(NCC4CCOCC4)n3)c(Cl)cn2)C1` (single isomer, unassigned) [Example 56], inhibition was half-maximal at 81 nM (IC50). `O=C(Nc1cc(-c2cccc(NC[C@H]3CCCOC3)n2)c(Cl)cn1)[C@@H]1CCCNC1` (single isomer, unassigned) [Example 78] returned a half-inhibitory concentration (IC50) of under 8 nM.

`O=C(Nc1cc(-c2cccc(NC[C@@H]3CCCOC3)n2)c(Cl)cn1)[C@@H]1CCCNC1` (single isomer, unassigned) [Example 79] gave an IC50 of under 8 nM. The value for `CC1(C)C[C@H](CNc2cccc(-c3cc(NC(=O)[C@@H]4CCCNC4)ncc3Cl)n2)CCO1` (single isomer, unassigned) [Example 115] was 1 nM; that for `CC1(C)C[C@@H](CNc2cccc(-c3cc(NC(=O)[C@@H]4CCCNC4)ncc3Cl)n2)CCO1` (single isomer, unassigned) [Example 116, (R)-piperidine-3-carboxylic acid {5′-chloro-6-[((S)-2,2-dimethyl-tetrahydro-pyran-4-ylmethyl)-amino]-[2,4′]bipyridinyl-2′-yl}-amide or (R)-piperidine-3-carboxylic acid {5′-chloro-6-[((R)-2,2-dimethyl-tetrahydro-pyran-4-ylmethyl)-amino]-[2,4′]bipyridinyl-2′-yl}-amide] was 2 nM.
